Results reported in patent US6946475B1, “Anticancer calcium channel blockers” (University of Virginia Patent Foundation, priority 1999, dated 2005).
Read-outs that look alike come from different tables or passages of the source.

Columns and labels:
Jurkat cells = test: Measurement of cellular proliferation, Jurkat cells; assay type: cell-based; conditions: for Effect on proliferation of Jurkat cells: FIGS. 10-39
Protocol: (§1) Measurement of cellular proliferation: LNCaP cells at 2.5×10^4/well or PC3 cells at 5×10^4/well, both in a final volume of 100 μl, were plated in triplicate in standard flat bottom 96 well tissue culture plates in the presence of drug or vehicle (DMSO). Unless otherwise indicated, cells were grown for 48 hours at 37° C. in a CO2 incubator. Relative cell growth was determined with the CellTiter 96 aqueous cell proliferation assay (Promega, Madison, Wis.) as described by the manufacturer using an automated plate reader. Results were calculated in a blinded fashion and are means of triplicate determinations.
(§2) For the 48 hour proliferation, cells were cultured with calcium channel antagonists or without calcium channel antagonists. The IC50 values of the calcium channel antagonists were determined.
(§3) Using the measurement cell proliferation assay described hereinabove, the cell lines Jurkat, LNCap (prostate cancer cell), PC-31 (prostate cancer cell), DU145 (prostate cancer cell), MDA-468 (breast cancer cell), MDA-36 (Breast cancer cell), MCF-7 (breast cancer cell), MIA PaCa-2 (pancreatic cancer cell), Hep G2 (liver cancer cell), A549 (non-small cell lung cancer cells), NCI H460 (non-small cell lung cancer cells), HT-29 (colon cancer cell), HCT-116 (colon cancer cell) and SK OV-3 (ovarian cancer cell) were cultured in the presence of TH-1177, TH-1205, TH-1201, TH-2109, TH-2029, TH-2043, TN-2085 and TH-2279.

[1] = tested on: PC3 prostate cancer cells; test: Measurement of cellular proliferation, PC3 cells; assay type: cell-based, human; conditions: for Effect on proliferation of PC3 cells: 48 hours, FIGS. 10-39; for IC50: PC-3, 48 hours, read-out: PROLIFERATION IC50 PC-3
Protocol: as §1, §2, §3

[2] = tested on: MDA-361 cells (breast cancer cell); test: Measurement of cellular proliferation, MDA-361 cells; assay type: cell-based; conditions: for Effect on proliferation of MDA-361 cells: 48 hours, FIGS. 10-39
Protocol: as §1, §2, §3

[3] = tested on: MDA-468 (breast cancer cell); test: Measurement of cellular proliferation, MDA-468 cells; as to Effect on proliferation of MDA-468 cells: test concentration or dose not given here; assay type: cell-based; conditions: for Effect on proliferation of MDA-468 cells: 48 hours, FIGS. 10-39; for IC50: MDA-468, 48 hours
Protocol: as §1, §2, §3

[4] = tested on: LNCaP prostate cancer cells; test: Measurement of cellular proliferation, LNCaP cells; as to Effect on proliferation of LNCaP cells: test concentration or dose not given here; assay type: cell-based, human; conditions: for Effect on proliferation of LNCaP cells: FIGS. 10-39
Protocol: as §1, §2, §3

[5] = tested on: DU145 (prostate cancer cell); test: Measurement of cellular proliferation, DU145 cells; assay type: cell-based; conditions: DU 145, 48 hours
Protocol: as §1, §2, §3

[6] = tested on: MCF-7 (breast cancer cell); test: Measurement of cellular proliferation, MCF-7 cells; assay type: cell-based; conditions: MCF-7, 48 hours
Protocol: as §1, §2, §3

[7] = tested on: SK OV-3 (ovarian cancer cell); test: Measurement of cellular proliferation, SK OV-3 cells; assay type: cell-based; conditions: SK-OV-3, 48 hours
Protocol: as §1, §2, §3

[8] = tested on: HT-29 (colon cancer cell); test: Measurement of cellular proliferation, HT-29 cells; assay type: cell-based; conditions: HT-29, 48 hours
Protocol: as §1, §2, §3

[9] = tested on: Hep G2 (liver cancer cell); test: Measurement of cellular proliferation, Hep G2 cells; assay type: cell-based; conditions: Hep G2, 48 hours
Protocol: as §1, §2, §3

[10] = tested on: A549 (non-small cell lung cancer cells); test: Measurement of cellular proliferation, A549 cells; assay type: cell-based; conditions: A549, 48 hours
Protocol: as §1, §2, §3

[11] = tested on: NCI H460 (non-small cell lung cancer cells); test: Measurement of cellular proliferation, NCI H460 cells; assay type: cell-based; conditions: NCI H460, 48 hours; read-out: PROLIFERATION IC50 NCl H460
Protocol: as §1, §2, §3

[12] = tested on: MIA PaCa-2 (pancreatic cancer cell); test: Measurement of cellular proliferation, MIA PaCa-2 cells; assay type: cell-based; conditions: MIA PaCa-2, 48 hours
Protocol: as §1, §2, §3

[13] = tested on: HCT-116 (colon cancer cell); test: Measurement of cellular proliferation, HCT-116 cells; assay type: cell-based; conditions: HCT 116, 48 hours
Protocol: as §1, §2, §3

[14] = Jurkat, 48 hours, read-out: PROLIFERATION IC50 Jurkat
[15] = MDA-361, 48 hours, read-out: PROLIFERATION IC50 MDA-361
[16] = LNCaP, 48 hours, read-out: PROLIFERATION IC50 LNCaP
[17] = Example 7, Jurkat, read-out: cell proliferation test of Example 6 repeated, Jurkat
[18] = Example 7, MDA-361, read-out: cell proliferation test of Example 6 repeated, MDA-361
[19] = Example 7, LNCaP, read-out: cell proliferation test of Example 6 repeated, LNCaP

IC50 [5] [µM] | IC50 (Jurkat cells; [14]) [µM] | IC50 [1] [µM] | IC50 [6] [µM] | IC50 [2, 15] [µM] | IC50 [7] [µM] | IC50 [8] [µM] | IC50 [9] [µM] | IC50 [3] [µM] | IC50 [10] [µM] | IC50 [4, 16] [µM] | IC50 [12] [µM] | IC50 [13] [µM] | SMILES | Effect on proliferation of Jurkat cells (Jurkat cells; 48 hours) | Effect on proliferation of PC3 cells [1] | Effect on proliferation of MDA-361 cells [2] | Effect on proliferation of MDA-468 cells [3] | Effect on proliferation of LNCaP cells ([4]; 48 hours) | IC50 [11] [µM] | also measured
 |  |  |  |  |  |  |  |  |  |  |  |  | c1ccc(C(CN2CCCCC2)c2ccccc2)cc1 [MMR-64] | inhibition | inhibition | inhibition | inhibition | inhibition |  | 
 |  |  |  |  |  |  |  |  |  |  |  |  | c1ccc(C(CN2CCC(COC(c3ccccc3)c3ccccc3)CC2)c2ccccc2)cc1 [MMR-70] | inhibition | inhibition | inhibition | inhibition | inhibition |  | 
 |  |  |  |  |  |  |  |  |  |  |  |  | COc1ccc(CCN2CCC(COC(c3ccccc3)c3ccccc3)CC2)cc1 [TH-1087] | concentration dependent inhibition | concentration dependent inhibition | concentration dependent inhibition | concentration dependent inhibition | concentration dependent inhibition |  | 
 |  |  |  |  |  |  |  |  |  |  |  |  | COc1ccc(CCN2CCCC2COC(c2ccccc2)c2ccccc2)cc1 (stereo not drawn) [TH-1113] | concentration dependent inhibition | concentration dependent inhibition | concentration dependent inhibition | concentration dependent inhibition | concentration dependent inhibition |  | 
21 | 11 | 23 | 70 | 19 | 33 | ~100 | 40 | 13 | 93 | 5 | 17 | 30 | COc1ccc(CCN2CCCC(COC(c3ccccc3)c3ccc(Cl)cc3)C2)cc1 (stereo not drawn) [TH-1205] | concentration dependent inhibition | concentration dependent inhibition | concentration dependent inhibition | concentration dependent inhibition | concentration dependent inhibition | 35 | 
13 | 4 | 17 | 24 | 14 | 23 | ~90 | 20 | 11 | 41 | 3 | 17 | 32 | COc1ccc(CCN2CCCC2COC(c2ccccc2)c2ccc(Cl)cc2)cc1 (stereo not drawn) [TH-1211] | concentration dependent inhibition | concentration dependent inhibition | concentration dependent inhibition | concentration dependent inhibition | concentration dependent inhibition | 13 | 
28 | 7 | 19 | 30 | 23 | 30 | ~100 | 30 | 21 | 72 | 4 | 17 | 31 | COc1ccc(CCN2CCC[C@H]2COC(c2ccc(Cl)cc2)c2ccc(Cl)cc2)cc1 [TH-2019] |  |  |  |  |  | 12 | 
17 | 11 | 18 | 37 | 16 | 24 | ~60 | 30 | 10 | 26 | 5 | 17 | 18 | COc1ccc(CCN2CCC(COC(c3ccccc3)c3ccc(Cl)cc3)CC2)cc1 (stereo not drawn) [TH-2029] |  |  |  |  |  | 24 | 
9 | 8 | 14 | 29 | 13 | 23 | > 100 | > 100 | 8 | 20 | 4 | 17 | 10 | COc1ccc(CCN2CCC(COC(c3ccc(Cl)cc3)c3ccc(Cl)cc3)CC2)cc1 [TH-2043] |  |  |  |  |  | 10 | 
41 | 10 | 36 | 33 | 26 | 80 | ~60 | 28 | 14 | 90 | 4 | 17 | 50 | COc1ccc(CCCN2CCC[C@H]2COC2c3ccccc3-c3ccccc32)cc1 [TH-2085] |  |  |  |  |  | 31 | 
 |  |  |  |  |  |  |  |  |  |  |  |  | COc1ccccc1CCN1CCC[C@H]1COC(c1ccccc1)c1ccc(Cl)cc1 (stereo partly drawn) [TH-3104] |  |  |  |  |  |  | IC50 (Jurkat cells; [17]): 3.8 µM; IC50 [2, 18]: 13 µM; IC50 [4, 19]: 2.4 µM
 |  |  |  |  |  |  |  |  |  |  |  |  | COc1cccc(CCN2CCC[C@H]2COC(c2ccccc2)c2ccc(Cl)cc2)c1 (stereo partly drawn) [TH-3105] |  |  |  |  |  |  | IC50 (Jurkat cells; [17]): 5 µM; IC50 [2, 18]: 29 µM; IC50 [4, 19]: 3.2 µM
